This is an account of results in PMC5849685, “Molecular basis of an agarose metabolic pathway acquired by a human intestinal symbiont” (Nature Communications, 2018).

Each structure is given as a SMILES string.

What all share (type): biochemical
One test has as its target T1, GH117B (Bacteroides uniformis, UniProt A0A2D0TCD6).
T1 construct: nucleotides 76-1209 of the gene (signal peptide removed; about residues 26-402), N-terminal His6 tag with thrombin site, pET28a, E. coli BL21 Star (DE3); homodimer
T1 sequence (A0A2D0TCD6 4-380): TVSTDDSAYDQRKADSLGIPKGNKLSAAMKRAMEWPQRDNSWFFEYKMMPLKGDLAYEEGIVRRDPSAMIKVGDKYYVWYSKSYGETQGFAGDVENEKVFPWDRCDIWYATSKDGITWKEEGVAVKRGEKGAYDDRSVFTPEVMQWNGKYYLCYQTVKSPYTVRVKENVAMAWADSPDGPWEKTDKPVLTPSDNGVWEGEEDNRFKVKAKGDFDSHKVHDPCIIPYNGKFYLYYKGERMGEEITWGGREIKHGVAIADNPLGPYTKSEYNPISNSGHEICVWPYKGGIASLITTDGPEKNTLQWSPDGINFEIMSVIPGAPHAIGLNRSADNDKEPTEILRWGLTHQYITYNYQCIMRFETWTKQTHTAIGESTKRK
As to the kind of experiment: TLC product analysis. Particulars: 0.5 uM enzyme, 0.5 mg/ml N2, 20 mM Tris pH 8.0, 0.5 M NaCl, 37 C, 24 h.

A further test deals with T2, GH16B (Bacteroides uniformis, UniProt A0A2D0TCD1).
T2 construct: nucleotides 67-1029 of the gene (signal peptide removed; about residues 23-342), N-terminal His6 tag with thrombin site, pET28a, E. coli BL21 Star (DE3)
T2 sequence (A0A2D0TCD1 4-323): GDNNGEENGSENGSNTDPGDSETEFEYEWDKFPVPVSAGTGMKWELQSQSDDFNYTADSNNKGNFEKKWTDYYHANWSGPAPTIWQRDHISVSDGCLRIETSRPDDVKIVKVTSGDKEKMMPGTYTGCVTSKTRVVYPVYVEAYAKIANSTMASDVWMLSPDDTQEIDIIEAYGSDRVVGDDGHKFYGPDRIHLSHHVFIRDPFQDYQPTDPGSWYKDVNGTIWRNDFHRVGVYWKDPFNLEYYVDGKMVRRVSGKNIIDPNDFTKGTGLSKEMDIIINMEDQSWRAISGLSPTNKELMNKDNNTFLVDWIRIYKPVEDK
The experiment in a line: FACE product analysis. Particulars: 20 mM Tris pH 8.0, 0.5 M NaCl, 37 C, overnight.

For a further test, the target named is T3, GH86 (Bacteroides uniformis, UniProt A0A2D0TCD3).
T3 construct: nucleotides 61-1941 of the gene (signal peptide removed; about residues 21-646), N-terminal His6 tag with thrombin site, pET28a, E. coli BL21 Star (DE3)
T3 sequence (A0A2D0TCD3 4-629): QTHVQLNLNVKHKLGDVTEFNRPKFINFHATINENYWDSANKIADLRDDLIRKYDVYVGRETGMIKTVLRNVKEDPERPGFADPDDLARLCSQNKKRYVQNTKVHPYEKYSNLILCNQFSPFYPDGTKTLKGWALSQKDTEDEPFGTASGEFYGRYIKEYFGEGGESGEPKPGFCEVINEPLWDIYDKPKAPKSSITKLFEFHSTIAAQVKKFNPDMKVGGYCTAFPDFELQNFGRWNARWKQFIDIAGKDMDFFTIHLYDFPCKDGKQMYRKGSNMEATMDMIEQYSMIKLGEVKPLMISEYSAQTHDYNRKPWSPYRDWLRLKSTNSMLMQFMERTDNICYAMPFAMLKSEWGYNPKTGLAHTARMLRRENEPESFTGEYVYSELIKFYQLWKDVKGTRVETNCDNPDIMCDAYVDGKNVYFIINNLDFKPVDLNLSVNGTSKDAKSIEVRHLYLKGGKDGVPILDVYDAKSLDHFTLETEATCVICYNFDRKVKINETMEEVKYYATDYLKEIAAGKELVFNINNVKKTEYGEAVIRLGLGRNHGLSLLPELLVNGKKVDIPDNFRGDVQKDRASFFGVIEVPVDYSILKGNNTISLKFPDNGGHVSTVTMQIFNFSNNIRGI
The experiment in a line: FACE product analysis. The settings on record: 20 mM Tris pH 8.0, 0.5 M NaCl, 37 C, overnight.

The next test addresses T4, GH2C (Bacteroides uniformis, UniProt A0A2D0TCC9).
T4 construct: nucleotides 76-2547 of the gene (signal peptide removed; about residues 26-848), N-terminal His6 tag with thrombin site, pET28a, E. coli BL21 Star (DE3)
T4 sequence (A0A2D0TCC9 4-826): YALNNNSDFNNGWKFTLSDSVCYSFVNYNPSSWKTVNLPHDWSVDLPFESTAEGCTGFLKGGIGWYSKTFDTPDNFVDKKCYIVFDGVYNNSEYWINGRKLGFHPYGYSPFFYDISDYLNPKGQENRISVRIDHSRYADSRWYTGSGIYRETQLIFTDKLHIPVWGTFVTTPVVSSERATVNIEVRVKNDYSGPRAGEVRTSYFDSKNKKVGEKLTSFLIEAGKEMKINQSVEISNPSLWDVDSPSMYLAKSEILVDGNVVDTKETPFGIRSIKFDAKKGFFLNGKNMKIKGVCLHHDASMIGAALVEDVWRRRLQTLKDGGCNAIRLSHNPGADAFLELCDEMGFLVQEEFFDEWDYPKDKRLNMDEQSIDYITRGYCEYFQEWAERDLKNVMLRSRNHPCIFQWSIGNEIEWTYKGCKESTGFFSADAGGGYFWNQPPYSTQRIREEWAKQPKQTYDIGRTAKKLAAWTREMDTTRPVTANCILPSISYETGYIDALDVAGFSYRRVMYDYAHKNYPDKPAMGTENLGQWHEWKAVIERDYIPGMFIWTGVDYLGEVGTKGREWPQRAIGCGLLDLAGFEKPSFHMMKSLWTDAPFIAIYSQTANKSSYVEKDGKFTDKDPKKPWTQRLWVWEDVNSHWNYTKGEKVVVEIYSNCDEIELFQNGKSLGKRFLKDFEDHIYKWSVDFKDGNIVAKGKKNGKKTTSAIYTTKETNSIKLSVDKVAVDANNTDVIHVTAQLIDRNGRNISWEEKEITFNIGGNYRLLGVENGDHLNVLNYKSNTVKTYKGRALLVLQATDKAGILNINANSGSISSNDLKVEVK
As to the kind of experiment: TLC product analysis. The settings on record: 2 uM enzyme, 2.5 mM A3, 20 mM Tris pH 8.0, 0.5 M NaCl, 37 C, 2 h.

`OC[C@H]1OC(O)[C@H](O)[C@@H](O[C@@H]2O[C@H]3CO[C@@H]([C@@H]2O)[C@@H]3O)[C@H]1O` (stereo partly drawn) [N2, neoagarobiose]: the TLC product analysis result at GH117B was “GAL and AHG released from N2 by GH117B”. For the compound `OC[C@H]1O[C@@H](O[C@H]2[C@H]3OC[C@@H]2O[C@@H](O[C@H]2[C@@H](O)[C@@H](CO)O[C@@H](O[C@H]4[C@H]5OC[C@@H]4O[C@@H](O[C@H]4[C@@H](O)[C@@H](CO)OC(O)[C@@H]4O)[C@H]5O)[C@@H]2O)[C@H]3O)[C@H](O)[C@@H](O[C@@H]2O[C@H]3CO[C@@H]([C@@H]2O)[C@@H]3O)[C@H]1O` (stereo partly drawn) [N6, neoagarohexaose], the FACE product analysis result at GH16B (weak activity) is “GH16B predominantly generated N4 from N8, N2 and N4 from N6”; on GH86, “GH86 was able to digest neoagarooctaose (N8) and neoagarohexaose (N6) to N2”. Take `OC[C@H]1O[C@@H](O[C@H]2[C@H]3OC[C@@H]2O[C@@H](O[C@H]2[C@@H](O)[C@@H](CO)OC(O)[C@@H]2O)[C@H]3O)[C@H](O)[C@@H](O)[C@H]1O` (stereo partly drawn) [A3, agarotriose]: the TLC product analysis entry at GH2C is “GH2C was able to hydrolyze A3”. `OC[C@H]1O[C@@H](O[C@H]2[C@H]3OC[C@@H]2O[C@@H](O[C@H]2[C@@H](O)[C@@H](CO)O[C@@H](O[C@H]4[C@H]5OC[C@@H]4O[C@@H](O[C@H]4[C@@H](O)[C@@H](CO)O[C@@H](O[C@H]6[C@H]7OC[C@@H]6O[C@@H](O[C@H]6[C@@H](O)[C@@H](CO)OC(O)[C@@H]6O)[C@H]7O)[C@@H]4O)[C@H]5O)[C@@H]2O)[C@H]3O)[C@H](O)[C@@H](O[C@@H]2O[C@H]3CO[C@@H]([C@@H]2O)[C@@H]3O)[C@H]1O` (stereo partly drawn) [N8, neoagarooctaose]: the FACE product analysis result is “GH16B predominantly generated N4 from N8, N2 and N4 from N6” on GH16B; “GH86 was able to digest neoagarooctaose (N8) and neoagarohexaose (N6) to N2” at GH86.
